Measurements from BigSolDB 2.1.

Compound `O=C(O)c1cc(=O)[nH]c(=O)[nH]1` has a solubility (mole fraction) (in DMF, 278.15 K) of 0.00242, a solubility (mole fraction) (in DMF, 283.15 K) of 0.00305 and a solubility (mole fraction) (in DMF, 288.15 K) of 0.00382. The solubility (mole fraction) (in DMF, 293.15 K) was 0.00473, the solubility (mole fraction) (in DMF, 298.15 K) was 0.00578 and the solubility (mole fraction) (in DMF, 303.15 K) was 0.0071. It also gave a solubility (mole fraction) (in DMF, 308.15 K) of 0.00861, a solubility (mole fraction) (in DMF, 313.15 K) of 0.0108 and a solubility (mole fraction) (in DMF, 318.15 K) of 0.0132. For the same compound, the solubility (mole fraction) (in DMF, 323.15 K) was 0.0157, the solubility (mole fraction) (in DMSO, 293.15 K) was 0.0326 and the solubility (mole fraction) (in DMSO, 298.15 K) was 0.0394. For the same compound, the solubility (mole fraction) (in DMSO, 303.15 K) was 0.0472, the solubility (mole fraction) (in DMSO, 308.15 K) was 0.0563 and the solubility (mole fraction) (in DMSO, 313.15 K) was 0.0665. For the same compound, the solubility (mole fraction) (in DMSO, 318.15 K) was 0.0781, the solubility (mole fraction) (in DMSO, 323.15 K) was 0.0911 and the solubility (mole fraction) (in THF, 278.15 K) was 7.26e-05. For the same compound, the solubility (mole fraction) (in THF, 283.15 K) was 8.12e-05, the solubility (mole fraction) (in THF, 288.15 K) was 9.02e-05 and the solubility (mole fraction) (in THF, 293.15 K) was 0.0001. It also gave a solubility (mole fraction) (in THF, 298.15 K) of 0.000112, a solubility (mole fraction) (in THF, 303.15 K) of 0.000125 and a solubility (mole fraction) (in THF, 308.15 K) of 0.000138. It also gave a solubility (mole fraction) (in THF, 313.15 K) of 0.000151, a solubility (mole fraction) (in THF, 318.15 K) of 0.000167 and a solubility (mole fraction) (in THF, 323.15 K) of 0.000185. The solubility (mole fraction) (in acetone, 278.15 K) was 9.3e-06, the solubility (mole fraction) (in acetone, 283.15 K) was 1.06e-05 and the solubility (mole fraction) (in acetone, 288.15 K) was 1.22e-05. For the same compound, the solubility (mole fraction) (in acetone, 293.15 K) was 1.37e-05, the solubility (mole fraction) (in acetone, 298.15 K) was 1.56e-05 and the solubility (mole fraction) (in acetone, 303.15 K) was 1.76e-05. It also gave a solubility (mole fraction) (in acetone, 308.15 K) of 1.95e-05, a solubility (mole fraction) (in acetone, 313.15 K) of 2.21e-05 and a solubility (mole fraction) (in acetone, 318.15 K) of 2.49e-05. It also gave a solubility (mole fraction) (in acetone, 323.15 K) of 2.78e-05, a solubility (mole fraction) (in ethanol, 278.15 K) of 1.71e-05 and a solubility (mole fraction) (in ethanol, 283.15 K) of 1.9e-05. It also gave a solubility (mole fraction) (in ethanol, 288.15 K) of 2.09e-05, a solubility (mole fraction) (in ethanol, 293.15 K) of 2.32e-05 and a solubility (mole fraction) (in ethanol, 298.15 K) of 2.57e-05. For the same compound, the solubility (mole fraction) (in ethanol, 303.15 K) was 2.86e-05, the solubility (mole fraction) (in ethanol, 308.15 K) was 3.17e-05 and the solubility (mole fraction) (in ethanol, 313.15 K) was 3.48e-05. The solubility (mole fraction) (in ethanol, 318.15 K) was 3.88e-05, the solubility (mole fraction) (in ethanol, 323.15 K) was 4.32e-05 and the solubility (mole fraction) (in ethyl acetate, 278.15 K) was 1.1e-06. The solubility (mole fraction) (in ethyl acetate, 283.15 K) was 1.2e-06, the solubility (mole fraction) (in ethyl acetate, 288.15 K) was 1.2e-06 and the solubility (mole fraction) (in ethyl acetate, 293.15 K) was 1.3e-06. It also gave a solubility (mole fraction) (in ethyl acetate, 298.15 K) of 1.4e-06, a solubility (mole fraction) (in ethyl acetate, 303.15 K) of 1.5e-06 and a solubility (mole fraction) (in ethyl acetate, 308.15 K) of 1.6e-06. The solubility (mole fraction) (in ethyl acetate, 313.15 K) was 1.8e-06, the solubility (mole fraction) (in ethyl acetate, 318.15 K) was 1.9e-06 and the solubility (mole fraction) (in ethyl acetate, 323.15 K) was 2e-06. The solubility (mole fraction) (in isopropanol, 278.15 K) was 1e-05, the solubility (mole fraction) (in isopropanol, 283.15 K) was 1.32e-05 and the solubility (mole fraction) (in isopropanol, 288.15 K) was 1.72e-05. It also gave a solubility (mole fraction) (in isopropanol, 293.15 K) of 2.12e-05, a solubility (mole fraction) (in isopropanol, 298.15 K) of 2.67e-05 and a solubility (mole fraction) (in isopropanol, 303.15 K) of 3.36e-05. The solubility (mole fraction) (in isopropanol, 308.15 K) was 4.18e-05, the solubility (mole fraction) (in isopropanol, 313.15 K) was 5.2e-05 and the solubility (mole fraction) (in isopropanol, 318.15 K) was 6.37e-05. It also gave a solubility (mole fraction) (in isopropanol, 323.15 K) of 7.71e-05, a solubility (mole fraction) (in methanol, 278.15 K) of 4.44e-05 and a solubility (mole fraction) (in methanol, 283.15 K) of 5.24e-05. It also gave a solubility (mole fraction) (in methanol, 288.15 K) of 6.13e-05, a solubility (mole fraction) (in methanol, 293.15 K) of 7.19e-05 and a solubility (mole fraction) (in methanol, 298.15 K) of 8.42e-05. The solubility (mole fraction) (in methanol, 303.15 K) was 9.82e-05, the solubility (mole fraction) (in methanol, 308.15 K) was 0.000115 and the solubility (mole fraction) (in methanol, 313.15 K) was 0.000135. For the same compound, the solubility (mole fraction) (in methanol, 318.15 K) was 0.000157, the solubility (mole fraction) (in methanol, 323.15 K) was 0.000184 and the solubility (mole fraction) (in methyl acetate, 278.15 K) was 8.8e-06. For the same compound, the solubility (mole fraction) (in methyl acetate, 283.15 K) was 9.4e-06, the solubility (mole fraction) (in methyl acetate, 288.15 K) was 1.03e-05 and the solubility (mole fraction) (in methyl acetate, 293.15 K) was 1.15e-05. The solubility (mole fraction) (in methyl acetate, 298.15 K) was 1.21e-05, the solubility (mole fraction) (in methyl acetate, 303.15 K) was 1.31e-05 and the solubility (mole fraction) (in methyl acetate, 308.15 K) was 1.41e-05. The solubility (mole fraction) (in methyl acetate, 313.15 K) was 1.53e-05, the solubility (mole fraction) (in methyl acetate, 318.15 K) was 1.64e-05 and the solubility (mole fraction) (in methyl acetate, 323.15 K) was 1.76e-05. The solubility (mole fraction) (in n-butanol, 278.15 K) was 1.47e-05, the solubility (mole fraction) (in n-butanol, 283.15 K) was 1.72e-05 and the solubility (mole fraction) (in n-butanol, 288.15 K) was 2.12e-05. It also gave a solubility (mole fraction) (in n-butanol, 293.15 K) of 2.53e-05, a solubility (mole fraction) (in n-butanol, 298.15 K) of 2.97e-05 and a solubility (mole fraction) (in n-butanol, 303.15 K) of 3.5e-05. It also gave a solubility (mole fraction) (in n-butanol, 308.15 K) of 4.06e-05, a solubility (mole fraction) (in n-butanol, 313.15 K) of 4.88e-05 and a solubility (mole fraction) (in n-butanol, 318.15 K) of 5.67e-05. It also gave a solubility (mole fraction) (in n-butanol, 323.15 K) of 6.63e-05, a solubility (mole fraction) (in n-propanol, 278.15 K) of 2.24e-05 and a solubility (mole fraction) (in n-propanol, 283.15 K) of 2.57e-05. It also gave a solubility (mole fraction) (in n-propanol, 288.15 K) of 3e-05, a solubility (mole fraction) (in n-propanol, 293.15 K) of 3.42e-05 and a solubility (mole fraction) (in n-propanol, 298.15 K) of 3.97e-05. For the same compound, the solubility (mole fraction) (in n-propanol, 303.15 K) was 4.61e-05, the solubility (mole fraction) (in n-propanol, 308.15 K) was 5.31e-05 and the solubility (mole fraction) (in n-propanol, 313.15 K) was 6.09e-05. It also gave a solubility (mole fraction) (in n-propanol, 318.15 K) of 7.17e-05, a solubility (mole fraction) (in n-propanol, 323.15 K) of 8.18e-05 and a solubility (mole fraction) (in water, 278.15 K) of 4.57e-05. The solubility (mole fraction) (in water, 283.15 K) was 5.22e-05, the solubility (mole fraction) (in water, 288.15 K) was 5.97e-05 and the solubility (mole fraction) (in water, 293.15 K) was 6.68e-05. For the same compound, the solubility (mole fraction) (in water, 298.15 K) was 7.56e-05, the solubility (mole fraction) (in water, 303.15 K) was 8.5e-05 and the solubility (mole fraction) (in water, 308.15 K) was 9.5e-05. It also gave a solubility (mole fraction) (in water, 313.15 K) of 0.000107, a solubility (mole fraction) (in water, 318.15 K) of 0.000121 and a solubility (mole fraction) (in water, 323.15 K) of 0.000136.
